In brackets after ≈: the same amount, converted by molar mass. Several values for one entry are separate records, joined by “and”; a condition that tells them apart may be missing. Identical values can stand only once. Residues, ends and D or L forms follow the SMILES beside them. *: point of attachment. βNA = c1ccc2cc(N*)ccc2c1
Tests used:
[1] = system: A. nidulans complex; conditions: all isolates, n = 2
[2] = system: McLDM-F5-CPR; test: microbe, parasite or virus in culture; type: cell-based, Saccharomyces cerevisiae AD2Δgal; conditions: Saccharomyces cerevisiae, read-out: mean MIC
[3] = ISV blood levels, HPLC; type: in vivo, human; conditions: for samples with level <1 mg/L: ICU
Procedure: Materials & Methods: ISV levels are routinely tested in our centre HPLC method. The lowest limit of quantification was set at 0.15 mg/L. ISV blood levels obtained between January 2017 and May 2021 were analysed and compared between those obtained from patients in ICU vs. others. Chi-square/Fisher’s exact test and Mann-Whitney test were used for categorical and continuous variables, respectively. Levels of ISV <1 mg/L were defined as low.

[4] = system: A. flavus complex; conditions: n = 6, EUCAST clinical breakpoints
[5] = Triazole drug levels in ABPA patients with asthma; type: in vivo, human; conditions: 452 patients, Oct 2009 to March 2021
Text: Materials & Methods: This was a retrospective single-centre cohort study evaluating longitudinal outcomes in non-cystic fibrosis (CF) ABPA patients with underlying chronic lung disease (asthma), and description of treatment approaches. Statistical Analysis System (SAS) programming was used for data integration from multiple hospital electronic systems, for patient identification and data analysis. Criteria for inclusion were patients with a background of asthma, serum Total IgE >1000 IU/mL and a positive Aspergillus IgE, with or without a positive culture for A. fumigatus from a respiratory sample. Data collected included demographics, lung function severity, disease activity serological markers (Aspergillus IgE, Aspergillus IgG, Total IgE) and triazole levels. In this study the impact of fungal therapy on disease outcomes was assessed.

[6] = system: A. fumigatus veterinary isolates; test: EUCAST microdilution of veterinary isolates; type: cell-based, Aspergillus fumigatus
Procedure: All have been confirmed as A. fumigatus by MALDI-TOF MS using the BCCM/IHEM database. The antifungal susceptibility was evaluated using the microdilution EUCAST method. Cyp51A gene sequencing has been performed on all resistant isolates.

[7] = system: azole-resistant A. fumigatus SS clinical strains; test: EUCAST E.DEF 9.3.2; type: cell-based; conditions: Aspergillus fumigatus
[8] = system: C. auris Isolate B and Isolate C; test: microbe, parasite or virus in culture; type: cell-based, Candida auris; conditions: for reduction in MIC: Isolate C with ERG11 WT in place of K143R
[9] = system: A. fumigatus complex; conditions: share of isolates, n = 59, EUCAST clinical breakpoints
[10] = system: drug transporters of M. circinelloides and R. microsporus; test: Rhodamine 6G efflux following glucose injection; type: cell-based, Mucor circinelloides, Rhizopus microsporus
Procedure: (§1) Methods: The inhibitory effect of PaβN on transporters activity was assessed by measuring the efflux of their fluorescent substrate rhodamine 6G following glucose injection. The interaction of PaβN and posaconazole was assessed by the chequerboard dilution method in order to determine the fractional inhibitory concentration index (FICI).

[11] = system: M. circinelloides and R. microsporus; test: Chequerboard dilution with posaconazole; type: cell-based, Mucor circinelloides, Rhizopus microsporus; conditions: PaβN + posaconazole; five ATCC or clinical isolates
Procedure: as §1

[12] = system: Rasamsonia argillacea species complex; test: Antifungal susceptibility testing; type: cell-based; conditions: sputum isolate of a CF patient
[13] = system: R. delemar 99–880; test: CLSI M38 in vitro susceptibility; type: cell-based, Rhizopus delemar; conditions: Rhizopus delemar, read-out: MIC at 100% inhibition of growth
Procedure: (§2) Methods & Materials: In vitro susceptibility was conducted by the CLSI M38 method using a clinical isolate of Rhizopus delemar (a common cause of mucormycosis). ICR mice were immunosuppressed with cyclophosphamide and cortisone acetate on days −2, +3, and +8, relative to infection with intratracheally instilled R. delemar. […] Mice survival through Day +21 served as the primary endpoint.

[14] = system: eumycetoma; conditions: in vivo; cited from earlier work
Text: Mycetoma: Mycetoma is a chronic, progressive, implantation inflammatory disease characterised by severe and stigmatising deformities, disability, and high morbidity. The disease is caused by fungi (eumycetoma) and several Actinomycetales members (actinomycetoma). Its estimative global burden is 9000 cases. There are no robust epidemiological studies on mycetoma in SA, but it is tconsidered the third most prevalent endemic IM in SA, especially among low socioeconomic adult males living in rural areas from Argentina, Brazil, Colombia and Venezuela, where the principal agents are Madurella spp. a ...

[15] = system: C. tropicalis; test: ARIA surveillance, CLSI M27 broth microdilution; type: cell-based, Candida tropicalis
Procedure: Materials & Methods: Isolates (n = 730) were collected and re-identified by MALDI-TOF or molecular methods. […] Percentage susceptibility (%S) or wild-type (%WT) were calculated according to CLSI breakpoints (CLSI supplement M60) or epidemiological cut-off values (CLSI supplement M59), respectively.

[16] = system: Rhizopus arrhizus; test: E test; type: cell-based
[17] = system: A. fumigatus strain v79-63; test: EUCAST MIC of the infecting strain; type: cell-based; conditions: Aspergillus fumigatus, V7963
[18] = system: Exophiala phaeomuriformis; test: MIC, CLSI M27-A3; type: cell-based; conditions: read-out: MIC values
Procedure: Materials & Methods: The aviation kerosone samples came from an aviation company in Porto Alegre, state of Rio Grande do Sul, Brazil. The fungi isolation was carried out using the modified ASTM D6974-09 Standard. In this procedure, 500 mL kerosene samples were filtered, in triplicate, under aseptic conditions, under vacuum, using a 0.22 μm membrane (Millipore). After filtering, the membranes were deposited in potato dextrose agar culture medium. The plates were incubated in an oven at 30 °C for seven days. After this period, the colonies were isolated in new culture media for purification of the isolates. Molecular identification was performed through the sequencing of ITS DNA regions. The profile of sensitivity to clinical antifungals was assessed following protocols M27-A3 of the Clinical and Laboratory Standards Institute (CLSI).

[19] = system: A. fumigatus (resistant to posaconazole strain v79-63); test: Neutropenic animal model of invasive pulmonary aspergillosis; type: in vivo, CD-1 mice
[20] = system: A. fumigatus strains; test: EUCAST E.DEF 9.3.2 broth microdilution; type: cell-based, Aspergillus fumigatus; parameters: MIC Range: unit not given beside the values; MIC50 / MIC90: unit not given here
Procedure: Methods: The research was conducted on 29 A. fumigatus strains. Minimum inhibitory concentrations (MIC) were detected by broth microdilution method (BM) following EUCAST definitive document E.DEF 9.3.2 and E-test in accordance with manufacturer instructions.

[21] = system: C. auris clinical strains; test: organism not typed; type: cell-based, Candida auris; conditions: range, 78 strains from patients with COVID-19
[22] = system: A. niger complex; test: EUCAST E.Def 9.3.2 susceptibility, CPA isolates; type: cell-based, Aspergillus niger complex; conditions: n = 7, ECOFFs
[23] = system: R. delemar; test: Murine mucormycosis, immunosuppressed mice infected intratracheally; type: in vivo, ICR mice; conditions: n = 20/arm
Procedure: as §2

[24] = system: A. fumigatus clinical isolates; test: Susceptibility of clinical isolates from CF patients; conditions: all 10 clinical isolates
[25] = system: McLDM strains; test: EUCAST MIC, S. cerevisiae overexpressing M. circinelloides LDM, resistance phenotypes; type: cell-based, Saccharomyces cerevisiae
[26] = system: Phaeoacremonium parasiticum; test: Antifungal susceptibility testing; type: cell-based
Procedure: Results: Cultures for bacteria were sterile. Culture on Sabouraud was positive after 5 days of incubation, showing slow growing and initially white colonies. […] Its identification was performed by sequencing the internal transcribed spacer (ITS) region of ribosomal DNA, being the isolate identified as Phaeoacremonium parasiticum (100% homology).

[27] = system: Scedosporium apiospermum; test: EUCAST reference method MIC; type: cell-based
Procedure: Case presentation: A patient presented with a bursitis of their left elbow. Six months before they were treated with lymphodepleting chemotherapy directly followed by B-cell associated CD19-specific chimeric antigen receptor (CAR) T cell therapy for recurrence of follicular lymphoma. They were considered immunocompromised, with total neutrophils and lymphocytes slightly below normal levels, absent B-cells, and a treatment associated persistent hypogammaglobulinaemia. Four weeks before presentation at our hospital they contacted their GP because of swelling and pain of their left elbow. Their GP aspirated fluid from their elbow, injected steroids and started antibiotics, but now there was recurrence of swelling and pain. Bursitis without arthritis was diagnosed by a rheumatologist and the bursa was surgically opened and drained, relieving pus. The patient was started on oral flucloxacillin and sent home. Two days later the culture of the pus from the bursa grew white colonies on a Sabouraud dextrose agar plate, showing long conidophores with large oval conidia on microscopy. […] Over the next few weeks the bursitis symptoms diminished. […] Voriconazole is considered first line treatment for Scedosporium infections. […] Eight weeks later there were no signs of bursitis and posaconazole was discontinued.

[28] = strain from pleural fluid of an ICU patient, no mutations in cyp51A
[29] = two strains from a cystic fibrosis patient, TR34/L98H

## C[C@@H](c1nc(-c2ccc(C#N)cc2)cs1)[C@](O)(Cn1cncn1)c1cc(F)ccc1F [isavuconazole]
[1]
  resistance of isolates: resistant
[2]
  MIC: 4 µg/mL (≈ 9.14 µM)
[3]; 265 samples, 63 patients, first two months
  median blood level: 3.3 mg/L
[3]; ICU patients
  blood level range: 0 to 8.48 mg/L
  median blood level: 1.95 mg/L
[3]; during renal replacement therapy, 7/24
  samples with level <1 mg/L: 29.2%
[3]; not receiving RRT, 7/46
  samples with level <1 mg/L: 15.2%
[3]; all samples
  blood level range: 0 to 14.52 mg/L
[3]; non-ICU patients
  blood level range: 0 to 14.52 mg/L
  median blood level: 4.1 mg/L
[4]
  isolates resistant: 17%
[5]
  median trough drug level: 3.29 mg/L
[6]
  isolates in the area of technical uncertainty (ATU): 27%
  resistance of isolates: No resistance
[7]; [28]
  MIC: 1 µg/mL (≈ 2.29 µM)
[7]; [29]
  MIC: 8 µg/mL (≈ 18.3 µM)
[8]
  change of MIC: largely unchanged
  reduction in MIC: 2 fold
[9]
  Resistance: 5%

## NC(N)=NCCC[C@H](NC(=O)[C@@H](N)Cc1ccccc1)C(=O)Nc1ccc2ccccc2c1 [PaβN, Phenylalanine-Arginine Beta-Naphthylamide] (H-Phe-Arg-βNA)
[10]
  efflux of rhodamine 6G: decrease the efflux of rhodamine 6G
[11]
  FICI: 0.5 and 0.5 to 0.6

## CC[C@@H]([C@H](C)O)n1ncn(-c2ccc(N3CCN(c4ccc(OC[C@@H]5CO[C@@](Cn6cncn6)(c6ccc(F)cc6F)C5)cc4)CC3)cc2)c1=O [posaconazole]
[12]
  minimal inhibitory concentrations (MIC): high minimal inhibitory concentrations
[13]
  MIC: 0.5 µg/mL (≈ 0.713 µM)
[14]
  Cure rate: 25–35%
[5]
  median trough drug level: 1.39 mg/L
[6]
  isolates in the area of technical uncertainty (ATU): 60%
[15]; Argentina
  WT: 57.1%
[15]; Australia, Panama, USA and Taiwan
  WT: > 90%
[15]; Italy
  WT: 47.4%
[16]
  MIC: > 32 µg/mL
[17]
  MIC: > 16 µg/mL
[7]; [28]
  MIC: 0.5 µg/mL (≈ 0.713 µM)
[7]; [29]
  MIC: 1 µg/mL (≈ 1.43 µM)
[18]
  MIC: 0.125 µg/mL (≈ 0.178 µM)
[19]; mean ± SEM, 3 animals treated for 3 d, placebo 6.1 ± 0.08
  log10CFU/lung: 5.2 ± 0.48 log10CFU/lung
[19]; survival recorded until 15 d, IL-18 10 ng/mouse intranasally daily -2 d till +7 d, posaconazole 16 mg/kg/day, groups of 10, control 20%
  survival rates: 56%
[20]; 28 h
  MIC50: 0.25
  MIC90: 0.5
[20]; 28 h, 29 strains
  MIC Range: 0.125–2
[20]; 48 h
  MIC50: 0.25
  MIC90: 0.5
  MIC Range: 0.125–4
[21]
  MIC: 0.06 to 8 µg/mL (≈ 0.0856 to 11.4 µM)
[8]
  change of MIC: largely unchanged
  reduction in MIC: 2 fold
[22]
  Non-wild type isolates: 43%
[9]
  Resistance: 5%
[23]; through Day +21, placebo 0
  % Survival: 25%
[23]; treatment from 24 h post infection, IBREXA 30 mg/kg po BID 7 d, LAMB 10 mg/kg iv 4 d, POSA 30 mg/kg po QD 7 d, placebo 8
  Median Survival: 13 days
[24]
  susceptibility: susceptible
[25]
  MICs compared to AD2Δ: not affected
[26]
  minimal inhibitory concentrations (MIC), in words: low
[27]; first isolate from bursa pus
  MIC: 1 µg/mL (≈ 1.43 µM)
[27]; isolate two months later, under posaconazole
  MIC: 2 µg/mL (≈ 2.85 µM)

Source: article PMC8624133, “10th Trends in Medical Mycology Held on 8 to 11 October 2021, Aberdeen, Scotland, Organized by the European Confederation of Medical Mycology (ECMM)” (Journal of Fungi, 2021)
